Test results: patent publication US11597728B2, “Monoacylglycerol lipase modulators” (Janssen Pharmaceutica NV, priority 2018, dated 2023)
pIC50: −log10 of the molar value.

Biological target: human MGL from HeLa cells (Homo sapiens (Human), UniProt Q99685)
Assay: In vitro MGL activity assay: cleavage of [glycerol-1,3-3H]-oleoyl glycerol, activated carbon filtration
Assay type: biochemical

Chain of human MGL from HeLa cells (Q99685 whole entry): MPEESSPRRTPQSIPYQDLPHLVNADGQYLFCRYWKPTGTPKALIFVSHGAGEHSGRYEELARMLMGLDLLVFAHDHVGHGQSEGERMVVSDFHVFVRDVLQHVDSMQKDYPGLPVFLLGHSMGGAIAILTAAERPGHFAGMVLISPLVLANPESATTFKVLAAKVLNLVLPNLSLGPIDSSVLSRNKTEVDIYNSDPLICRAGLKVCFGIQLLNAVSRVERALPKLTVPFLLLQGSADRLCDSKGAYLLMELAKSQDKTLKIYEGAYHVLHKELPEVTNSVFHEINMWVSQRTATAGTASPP

## Cn1nc2c(c1-c1ccc(F)c(F)c1)C[C@H]1CCC[C@@H]2N1C(=O)c1ccccc1-n1nccn1 [Example 126, (2-(2H-1,2,3-Triazol-2-yl)phenyl)((5R,9S)-3-(3,4-difluorophenyl)-2-methyl-4,5,6,7,8,9-hexahydro-2H-5,9-epiminocycloocta[c]pyrazol-10-yl)methanone]
  pIC50: 8.13
